The values below come from US7786160B2, “Combination of selected analgesics and COX-II inhibitors” (Gruenenthal GmbH, priority 2002, dated 2010).

Common to all, as to assay type: in vivo
The test system of assay [1] is rat. Kind of assay: Randall-Selitto test (yeast oedema, model for inflammatory pain). To be noted: for effect of compound A with COX-II inhibitor (Rofecoxib or Celecoxib) compared with additive (in words): staggered administration, Rofecoxib or Celecoxib 1 hour prior to compound A. As to the method:
The Randell-Selitto test of Randall and Selitto (Arch. Int. Pharmacodyn., 1957, 111: 409 to 419) is a model for inflammatory pain.
By means of the injection of 0.1 ml 20% baking yeast suspension ventrally into a hind paw an oedema was induced, on which pain was generated 4 hours later by continuously increasing pressure with a stamp (2 mm tip diameter). The measured value to be determined and at the same time also the end point of the pain test was the pressure at which the vocalisation reaction of the animal occurred. The percentage maximum possible effect (%MPE) was calculated. The maximum pressure of the stamp was 250 g. The group size was n=10.
The theoretical additive value was calculated by adding the mean values from the individual tests of the test substance and COX-II inhibitor. The corresponding standard deviation of the theoretical additive mean value was calculated from the addition of the variances.

Another assay deals with mouse. Kind of assay: Formalin test (chronic pain component), mouse. The settings on record: peroral, substance alone. As to the method: (§1) The formalin test (Dubuisson, D. and Dennis, S. G., 1977, Pain, 4, 161 to 174) is a model for acute and chronic pain. In the tests presented here, the chronic pain component was evaluated.
(§2) By means of a single formalin injection into the dorsal side of a hind paw of test animals that were able to move freely, a biphasic nociceptive reaction, which was detected by the observation of three clearly distinguishable behavioural patterns, was induced.
(§3) Formalin having a volume of 20 μl and a concentration of 1% was administered subcutaneously into the dorsal side of the right hind paw of each animal. The specific behavioural changes, such as raising and shaking of the paw, weight loss in the animal and biting and licking reactions, were continuously observed and registered for up to 60 min after the formalin administration. The behavioural changes were weighted differently (a score of 0 to 3) and a pain rate (PR) calculated having the general formula: PR=[(T0×0)+(T1×1)+(T2×2)+(T3×3)/180.
(§4) The group contained 10 animals (n=10).

Assay [2] deals with rat. Nature of the assay: Formalin test (chronic pain component), rat. The settings on record: peroral, substance alone. As to the method:
as §1, §2, §3, §4

Assay [3] in a line: All listed animal models together (acute, chronic and inflammatory pain). To be noted: simultaneous administration with a selective COX-II inhibitor (Rofecoxib or Celecoxib), chronic and inflammatory pain (Table 1). The protocol:
1, 4, 2 and 2 (Randall-Selitto test). In these tests, either Rofecoxib or Celecoxib was administered 1 hour prior to the administration of the selected analgesic (compound A). In a few tests, Rofecoxib was administered as the final preparation Vioxx and Celecoxib as Celebrex.

The test system of assay [4] is rat. Nature of the assay: Writhing test (acetic acid, model for acute pain). The settings on record: peroral, substance alone. The protocol:
The writhing test is a modification of the method of Schmauss C and Yaksh TL, J Pharmacol Exp Ther 228: 1-12 (1984) and a model for acute pain.
9% acetic acid was administered to the animals intraperitoneally as a pain stimulus. This was administered 30 min (test substance perorally) or 10 min (test substance intravenously) after the administration of the test substance. The pain-induced writhing reactions were recorded 10 to 35 min after the administration of acetic acid. […] Pain expressions, such as a slanting body angle when the animal stands upright, frequent cleaning of the belly or arching of the back without stretching of the rear limbs, were thus included in the evaluation.
The animals that had been treated with the substance were compared with a control group, which had been given physiological saline solution. The group contained 10 animals (n=10).

The mark [5] stands for this setting: read-out: ED50 [mg/kg] of COX-II inhibitor.
The mark [6] stands for this setting: read-out: ED50 [mg/kg] of compound A.

Like-named read-outs stand apart in the source and are kept apart here.

Turning to `COc1cccc([C@@]2(O)C[C@H](O)CC[C@@H]2CN(C)C)c1.Cl` (racemic) [Compound 4], the “% effect of compound A” value worked out at 85.4% with rat [1] (Table 2, staggered series, compound A alone 68.1 mg/kg peroral, 15-75 min after administration of compound No. 4) and 45.2% with rat [1] (Table 2, staggered series, compound A alone 68.1 mg/kg peroral, 75-90 min after administration of compound No. 4). The “effect of compound A with COX-II inhibitor (Rofecoxib or Celecoxib) compared with additive (in words)” value in the assay on rat [1] was “clear effect-increasing supra-additive effect”.
Turning to `Cc1ccc(-c2cc(C(F)(F)F)nn2-c2ccc(S(N)(=O)=O)cc2)cc1` [Compound 101, Celecoxib, reference compound], the ED50 in the assay with mouse (setting [5]) is 38.5 mg/kg; in the assay with rat [2] (setting [5]) it was 154 mg/kg. Also, the “% effect of COX-II inhibitor” value in the assay on rat [1] (fixed dose combination (not staggered), COX-II inhibitor alone 215 mg/kg peroral, %MPE) is 9.8%.
As for `CN(C)C[C@@H]1CCCC[C@H]1c1cccc(O)c1.Cl` [Compound 1, (1R,2R)-3-(2-dimethylaminomethyl-cyclohexyl)-phenol; hydrochloride], in assay [3], the “effect in comparison to the theoretically calculated purely additive effect” value is recorded as “intensification of effect”. Besides, the “% effect of compound A” value with rat [1] (Table 3, staggered series, compound A alone 46.4 mg/kg peroral) was 26.2%. For the same compound, in the assay on rat [1], the “effect of compound A with COX-II inhibitor (Rofecoxib or Celecoxib) compared with additive (in words)” value is on record as “clear effect-increasing supra-additive effect”.
Take `CS(=O)(=O)c1ccc(C2=C(c3ccccc3)C(=O)OC2)cc1` [Compound 102, Rofecoxib, reference compound]: the ED50 with rat [4] (setting [5]) worked out at 60.1 mg/kg.
For the compound `CC[C@@H](c1cccc(O)c1)[C@@H](C)CN(C)C.Cl` [Compound 2, (1R,2R)-3-(3-dimethylamino-1-ethyl-2-methyl-propyl)-phenol; hydrochloride], the ED50 stood at 33 mg/kg in the assay on rat [4] (setting [6]), 34.6 mg/kg in the assay on mouse (setting [6]) and 18 mg/kg with rat [2] (setting [6]). In addition, the “% effect of compound A” value was found to be 20.0% in the assay on rat [1] (Table 1, staggered administration series, compound A alone 31 mg/kg peroral); 32.6% with rat [1] (Table 1, staggered administration series, compound A alone 46 mg/kg peroral); 13.3% in the assay with rat [1] (fixed dose combination (not staggered), compound A alone 31 mg/kg peroral, %MPE). The “effect of compound A with COX-II inhibitor (Rofecoxib or Celecoxib) compared with additive (in words)” value in the assay with rat [1] was “clear effect-increasing supra-additive effect”.
For `CC[C@H](c1cccc(O)c1)[C@H](C)CN(C)C.Cl` [Compound 3, (1S,2S)-3-(3-dimethylamino-1-ethyl-2-methyl-propyl)-phenol; hydrochloride], in the assay with rat [1] (Table 4, staggered series, compound A alone 21.5 mg/kg peroral), the “% effect of compound A” value stood at 22.8%.
